According to patent US7749729B2, “Methods for assessing the risk for development of cardiovascular disease” (University of Washington, priority 2004, dated 2010):

How the values were obtained:
myeloperoxidase = biological target: T1, myeloperoxidase (Homo sapiens, UniProt P05164); test: Nitration of HDL by the myeloperoxidase-H2O2-NO2- system (3-nitrotyrosine formation, absorbance at 430 nm); assay type: biochemical; settings: 250 μM H2O2, 500 μM NO2-
T1 construct: from tissue; host or cells: human neutrophils
Experimental: FIG. 1 describes nitration of HDL by the myeloperoxidase-H2O2-nitrite system. (A,C) HDL (1 mg/ml protein) was incubated for 60 min or the indicated time at 37° C. in phosphate buffer (20 mM sodium phosphate, pH 7.4, 100 μM DTPA) supplemented with 50 nM myeloperoxidase, 250 μM H2O2 and 500 μM NO2^−. Where indicated, the concentrations of (B) NO2^− were varied. 3-Nitrotyrosine formation was monitored spectroscopically following alkalinization of the reaction mixture.
FIG. 2 describes the effect of Cl^− or taurine on HDL nitration by the myeloperoxidase-H2O2—NO2^− system or HOCl—NO2^−. HDL was exposed for 60 min at 37° C. to myeloperoxidase in phosphate buffer supplemented with 250 μM H2O2, 500 μM NO2^− and (A) the indicated concentration of Cl^− or (B) the indicated concentration of taurine and 100 mM Cl^−. […]
HDL oxidation in vitro. […] Concentrations of HOCl and H2O2 were determined spectrophotometrically (ε292=350 M^−1 cm^−1 ε240=39.4 M^−1 cm^−1) (48,49). 3-Nitrotyrosine formation in a 300 μL aliquot of the reaction mixture was determined in a microplate reader by monitoring absorbance at 430 nm following the addition of NaOH to adjust the pH>9.
Myeloperoxidase generates 3-nitrotyrosine in HDL protein under physiologically relevant in vitro conditions. […] We monitored the formation of 3-nitrotyrosine spectroscopically by quantifying absorbance of the alkalinized reaction mixture at 430 nm.

[1] = system: mock-transfected BHK cells (low ABCA1); test: Cholesterol efflux from [3H]cholesterol-labeled mock-transfected BHK cells; assay type: cell-based, hamster; settings: 2 to 4 h incubation
Experimental: (§1) FIG. 11 describes cholesterol efflux activities of native and HOCl-oxidized HDL, apo A-I, and peptide 18A. [^3H]Cholesterol-labeled mock-(A, C) or ABCA1-transfected (A-C) BHK cells were incubated for 4 h with native (Ctrl), H2O2-oxidized, or HOCl-oxidized HDL (20 µg/mL) or apo A-I (5 µg/mL) (A), for 2 h with 5 µg/mL apo A-I oxidized with the indicated mole ratio of HOCl (B), or for 2 h with control (−) or HOCl-oxidized (+) peptide Ac-18A-NH2 (20 µg/mL) (C). At the end of the incubation, [^3H]cholesterol efflux to the acceptor particle was measured. *P<0.01 compared with controls.
Cell Culture and Cholesterol Efflux. Baby hamster kidney (BHK) cells expressing mifepristone-inducible human ABCA1 were generated as previously described (35). Cellular cholesterol was labeled by adding 1 μCi/mL [^31H]cholesterol (NEN Life Science Products) to the growth medium. Twenty four hours later, strong expression of ABCA1 was induced by incubating the cells for 20 h with DMEM containing 1 mg/mL bovine serum albumin (DMEM/BSA) and 1 nM mifepristone (Vaughan et al., 2003. J Lipid Res 44:1373-1380). […] Cholesterol efflux mediated by HDL, apo A-I, or peptide was calculated as the percentage of total [^31H]cholesterol (medium plus cell) released into the medium after subtracting the value obtained with DMEM/BSA alone. […]

[2] = system: ABCA1-transfected BHK cells; test: Cholesterol efflux from [3H]cholesterol-labeled ABCA1-transfected BHK cells; assay type: cell-based, hamster; settings: for effect of oxidation of the acceptor on cholesterol efflux, compared with native acceptor: ABCA1-transfected BHK cells, acceptor oxidized with HOCl or H2O2
Experimental: as §1
Cell Culture and Cholesterol Efflux. Baby hamster kidney (BHK) cells expressing mifepristone-inducible human ABCA1 were generated as previously described (35). Cellular cholesterol was labeled by adding 1 μCi/mL [^31H]cholesterol (NEN Life Science Products) to the growth medium. Twenty four hours later, strong expression of ABCA1 was induced by incubating the cells for 20 h with DMEM containing 1 mg/mL bovine serum albumin (DMEM/BSA) and 1 nM mifepristone (Vaughan et al., 2003. J Lipid Res 44:1373-1380). To measure cholesterol efflux, mock- or ABCA1-transfected cells were incubated with DMEM/BSA without or with HDL, apo A-I, or peptide. After 2 to 4 h, the medium and cells were assayed for [^3H]cholesterol as described (Id.). Cholesterol efflux mediated by HDL, apo A-I, or peptide was calculated as the percentage of total [^31H]cholesterol (medium plus cell) released into the medium after subtracting the value obtained with DMEM/BSA alone.
We exposed HDL or purified apo A-I to HOCl or H2O2 (80:1 or 25:1, mol/mol, oxidant:HDL particle or oxidant:apo A-I) in a physiological buffer (138 mM NaCl, 2.7 mM KCl, 10 mM sodium phosphate) at neutral pH for 120 min at 37° C., terminating the reaction with a 20-fold molar excess (relative to oxidant) of methionine. […]

T1 sequence (P05164 279-745 limits assumed): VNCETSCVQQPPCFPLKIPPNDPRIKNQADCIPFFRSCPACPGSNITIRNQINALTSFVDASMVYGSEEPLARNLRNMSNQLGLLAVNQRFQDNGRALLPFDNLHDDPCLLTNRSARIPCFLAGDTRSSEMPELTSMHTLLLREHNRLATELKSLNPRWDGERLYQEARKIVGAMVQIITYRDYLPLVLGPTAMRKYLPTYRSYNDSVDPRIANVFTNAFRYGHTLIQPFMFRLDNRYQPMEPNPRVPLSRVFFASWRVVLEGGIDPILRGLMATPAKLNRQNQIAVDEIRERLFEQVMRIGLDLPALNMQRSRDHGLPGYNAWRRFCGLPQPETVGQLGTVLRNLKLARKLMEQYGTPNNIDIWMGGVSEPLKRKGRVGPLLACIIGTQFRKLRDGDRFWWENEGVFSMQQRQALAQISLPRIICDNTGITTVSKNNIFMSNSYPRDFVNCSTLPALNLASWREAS
T1 sequence (P05164 165-273 limits assumed): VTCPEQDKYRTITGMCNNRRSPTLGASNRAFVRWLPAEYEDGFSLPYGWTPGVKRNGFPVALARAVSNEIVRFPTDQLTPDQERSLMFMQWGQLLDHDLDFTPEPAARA

Molecule	cholesterol efflux to the acceptor [1]	effect of oxidation of the acceptor on cholesterol efflux, compared with native acceptor [2]	further results
NCCS(=O)(=O)O [Taurine, 2-aminoethanesulfonic acid]	–	–	effect on HDL nitration (3-nitrotyrosine formation) in the presence of Cl- (myeloperoxidase; myeloperoxidase, 100 mM Cl-, 60 min, 37° C.): no effect
Acetyl-18A-NH2	promoted cholesterol efflux	–	–
H2O2-oxidized apo A-I: purified apo A-I exposed to H2O2 (25:1 mol/mol oxidant:apo A-I)	–	no effect	–
HOCl-oxidized apo A-I: purified apo A-I exposed to HOCl (25:1 mol/mol oxidant:apo A-I)	–	significant decrease	–
apo A-I: purified apolipoprotein A-I, HDL's major protein	essentially no cholesterol efflux activity	–	cholesterol efflux to the acceptor ([2]; ABCA1-transfected BHK cells (ABCA1 overexpressed), 2 to 4 h incubation): became active
catalase	–	–	effect on HDL nitration (3-nitrotyrosine formation) (myeloperoxidase; 1 mg/ml HDL, 50 nM myeloperoxidase, pH 7.4, 37° C., catalase 200 nM, sodium azide 10 mM): inhibited
